Experimental data as given in US20250332266A1, “COMPOUNDS FOR THE DEGRADATION OF EGFR KINASE” (BeiGene Switzerland GmbH, priority 2022, published 2025).

Experiments:
[1] = molecular target: T1, EGFR L858R/T790M/C797S (H1975-clone #25) (Homo sapiens, UniProt P00533, C797S/L858R/T790M); assay: EGFR degradation, HTRF total-EGFR assay, H1975-clone #25 (LTC); assay type: cell-based; conditions: H1975-clone #25 L858R/T790M/C797S, 16 h treatment
T1 construct: expressed in transfected cells; host or cells: H1975 (clone #25), lentiviral transduction, endogenous EGFR knocked out
T1 sequence (P00533 25-1210 T790M/C797S/L858R): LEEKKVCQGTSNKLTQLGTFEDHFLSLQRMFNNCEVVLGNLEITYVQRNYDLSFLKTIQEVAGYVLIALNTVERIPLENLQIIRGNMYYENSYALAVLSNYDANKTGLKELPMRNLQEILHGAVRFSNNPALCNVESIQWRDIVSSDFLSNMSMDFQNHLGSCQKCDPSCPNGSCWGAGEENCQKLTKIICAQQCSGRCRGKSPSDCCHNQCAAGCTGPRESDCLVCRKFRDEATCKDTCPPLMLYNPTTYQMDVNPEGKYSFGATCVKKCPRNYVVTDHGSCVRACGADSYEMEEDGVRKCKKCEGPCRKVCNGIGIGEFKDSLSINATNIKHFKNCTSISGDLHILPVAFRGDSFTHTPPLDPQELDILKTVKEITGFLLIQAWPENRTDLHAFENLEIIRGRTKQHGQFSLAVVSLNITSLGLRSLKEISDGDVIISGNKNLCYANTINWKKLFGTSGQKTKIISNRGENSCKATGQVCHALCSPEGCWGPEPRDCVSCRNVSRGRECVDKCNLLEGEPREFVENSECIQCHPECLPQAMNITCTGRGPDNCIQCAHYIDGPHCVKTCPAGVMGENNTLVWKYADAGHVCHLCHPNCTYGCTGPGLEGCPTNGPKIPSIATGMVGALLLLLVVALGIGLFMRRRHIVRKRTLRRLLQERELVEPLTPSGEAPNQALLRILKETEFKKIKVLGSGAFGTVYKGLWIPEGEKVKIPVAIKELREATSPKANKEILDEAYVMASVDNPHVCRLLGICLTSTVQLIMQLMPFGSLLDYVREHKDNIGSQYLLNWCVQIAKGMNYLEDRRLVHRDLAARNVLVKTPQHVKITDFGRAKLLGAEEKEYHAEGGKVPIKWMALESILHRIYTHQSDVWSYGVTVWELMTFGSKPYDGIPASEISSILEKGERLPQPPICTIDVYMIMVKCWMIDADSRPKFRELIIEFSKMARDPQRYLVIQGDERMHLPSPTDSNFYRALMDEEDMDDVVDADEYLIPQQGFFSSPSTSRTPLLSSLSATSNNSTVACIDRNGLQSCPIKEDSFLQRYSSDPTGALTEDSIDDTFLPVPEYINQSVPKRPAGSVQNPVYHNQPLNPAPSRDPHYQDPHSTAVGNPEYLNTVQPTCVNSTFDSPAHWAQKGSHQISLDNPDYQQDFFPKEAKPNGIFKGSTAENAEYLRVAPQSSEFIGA
Method in brief: (§1)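 H1975 clones with endogenous EGFR knocked out and homozygous exogenous EGFR mutants (#28 Del19/T790M/C797S; #25 L858R/T790M/C797S) treated 16 h at 37 °C, 8 doses, 5-fold from 10 μM, 0.2% DMSO. Total EGFR measured by HTRF on lysates, normalised to DMSO controls; DC50 and Dmax from curve fit.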

[2] = molecular target: EGFR Del19/T790M/C797S (H1975-clone #28) (Homo sapiens, UniProt P00533, T790M/C797S, form not given); assay: EGFR degradation, HTRF total-EGFR assay, H1975-clone #28 (DTC); assay type: cell-based; conditions: H1975-clone #28 Del19/T790M/C797S, 16 h treatment
Chain of EGFR Del19/T790M/C797S (H1975-clone #28) (P00533 with tags, fused parts or gaps DEL746-750/T790M/C797S, form open): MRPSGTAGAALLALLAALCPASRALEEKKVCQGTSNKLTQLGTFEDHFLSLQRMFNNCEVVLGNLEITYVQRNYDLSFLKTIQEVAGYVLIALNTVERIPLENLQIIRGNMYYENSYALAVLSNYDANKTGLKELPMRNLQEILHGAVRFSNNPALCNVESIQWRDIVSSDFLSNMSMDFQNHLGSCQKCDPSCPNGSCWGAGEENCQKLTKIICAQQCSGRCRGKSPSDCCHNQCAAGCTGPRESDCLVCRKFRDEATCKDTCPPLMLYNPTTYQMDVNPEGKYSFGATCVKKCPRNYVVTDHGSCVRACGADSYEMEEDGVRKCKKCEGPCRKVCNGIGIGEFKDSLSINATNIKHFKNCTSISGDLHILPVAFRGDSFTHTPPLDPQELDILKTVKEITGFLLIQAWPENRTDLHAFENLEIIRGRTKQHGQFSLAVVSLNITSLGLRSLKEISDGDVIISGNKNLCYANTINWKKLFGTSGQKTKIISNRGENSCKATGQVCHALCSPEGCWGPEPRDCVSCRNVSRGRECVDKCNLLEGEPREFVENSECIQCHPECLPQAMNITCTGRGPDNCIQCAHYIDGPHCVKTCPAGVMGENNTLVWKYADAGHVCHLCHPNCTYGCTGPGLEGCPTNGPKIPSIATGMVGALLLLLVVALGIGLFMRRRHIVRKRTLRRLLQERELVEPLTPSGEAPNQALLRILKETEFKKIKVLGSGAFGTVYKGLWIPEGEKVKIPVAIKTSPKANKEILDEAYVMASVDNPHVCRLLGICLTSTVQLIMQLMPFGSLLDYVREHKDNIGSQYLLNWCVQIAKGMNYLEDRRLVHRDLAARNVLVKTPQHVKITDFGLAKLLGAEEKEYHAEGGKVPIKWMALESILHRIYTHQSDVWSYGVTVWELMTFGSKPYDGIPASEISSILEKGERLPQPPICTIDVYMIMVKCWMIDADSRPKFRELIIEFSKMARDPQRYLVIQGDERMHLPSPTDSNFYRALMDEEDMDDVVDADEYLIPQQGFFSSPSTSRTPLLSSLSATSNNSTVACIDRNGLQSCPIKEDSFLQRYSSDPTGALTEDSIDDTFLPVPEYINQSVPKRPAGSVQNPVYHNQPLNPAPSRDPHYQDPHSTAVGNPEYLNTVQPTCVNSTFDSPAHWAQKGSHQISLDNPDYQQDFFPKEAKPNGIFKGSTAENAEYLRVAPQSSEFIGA
Method in brief: as §1

SMILES | Degradation H1975 # 25-LTC [1] | Degradation H1975 # 28 DTC [2]
Cc1cc2cc(n1)-c1cnn(C)c1OC[C@H]1C[C@@H](CN3/C(=N/C2=O)Nc2ccc(N4CCN([C@@H]5CCN(c6ccc(C7CCC(=O)NC7=O)nc6C)C[C@H]5F)CC4)cc23)C1 (stereo partly drawn) [Example 57, 3-(5-((3R,4R)-4-(4-((7^1s,7^3S,E)-1^1,2^6-dimethyl-3-oxo-5^2,5^3-dihydro-1^1H,5^1H-9-oxa-4-aza-5(2,1)-benzo[d]imidazola-2(2,4)-pyridina-1(4,5)-pyrazola-7(1,3)-cyclobutanacyclononaphane-5^6-yl)piperazin-1-yl)-3-fluoropiperidin-1-yl)-6-methylpyridin-2-yl)piperidine-2,6-dione] | 89.9 | 87.5
Cc1cc2cc(n1)-c1cnn(C)c1OC[C@H]1C[C@@H](CN3/C(=N/C2=O)Nc2ccc(N4CCN(C5CCN(c6cc(F)c([C@H]7CCC(=O)NC7=O)c(F)c6)CC5)C[C@H]4C)cc23)C1 [Example 18, (R)-3-(4-(4-((R)-4-((7^1s,7^3S,E)-1^1,2^6-dimethyl-3-oxo-5^2,5^3-dihydro-1^1H,5^1H-9-oxa-4-aza-5(2,1)-benzo[d]imidazola-2(2,4)-pyridina-1(4,5)-pyrazola-7(1,3)-cyclobutanacyclononaphane-5^6-yl)-3-methylpiperazin-1-yl)piperidin-1-yl)-2,6-difluorophenyl)piperidine-2,6-dione] | 88.6 | 88.4
Cc1cc2cc(n1)-c1cnn(C)c1OC[C@H]1C[C@@H](CN3/C(=N/C2=O)Nc2ccc(N(C)CC4CN(C5CCN(c6ccc(C7CCC(=O)NC7=O)nc6C)CC5)C4)cc23)C1 (stereo partly shown) [Example 114, 3-(5-(4-(3-((((7^1s,7^3s,E)-1^1,2^6-dimethyl-3-oxo-5^2,5^3-dihydro-1′H,5^1H-9-oxa-4-aza-5(2,1)-benzo[d]imidazola-2(2,4)-pyridina-1(4,5)-pyrazola-7(1,3)-cyclobutanacyclononaphane-5^6-yl)(methyl)amino)methyl)azetidin-1-yl)piperidin-1-yl)-6-methylpyridin-2-yl)piperidine-2,6-dione] | 86.8 | 79.0
Cc1cc2cc(n1)-c1cnn(C)c1OC[C@H]1C[C@@H](CN3/C(=N/C2=O)Nc2ccc(N4CCN(C5CCN(c6cnc(C7CCC(=O)NC7=O)cc6C)CC5)C[C@H]4C)cc23)C1 (stereo partly drawn) [Example 1, 3-(5-(4-((R)-4-((7^1s,7^3S,E)-1^1,2^6-dimethyl-3-oxo-5^2,5^3-dihydro-1^1H,5^1H-9-oxa-4-aza-5(2,1)-benzo[d]imidazola-2(2,4)-pyridina-1(4,5)-pyrazola-7(1,3)-cyclobutanacyclononaphane-5^6-yl)-3-methylpiperazin-1-yl)piperidin-1-yl)-4-methylpyridin-2-yl)piperidine-2,6-dione] | 92.8 | 91.9
Cc1cc2cc(n1)-c1cnn(C)c1OC[C@H]1C[C@@H](CN3/C(=N/C2=O)Nc2ccc(N4CCN([C@@H]5CCN(c6ccc(C7CCC(=O)NC7=O)nc6C)CC5(F)F)CC4)cc23)C1 (stereo partly drawn) [Example 123, 3-(5-((R)-4-(4-((7^1s,7^3S,E)-1^1,2^6-dimethyl-3-oxo-5^2,5^3-dihydro-1^1H,5^1H-9-oxa-4-aza-5(2,1)-benzo[d]imidazola-2(2,4)-pyridina-1(4,5)-pyrazola-7(1,3)-cyclobutanacyclononaphane-5^6-yl)piperazin-1-yl)-3,3-difluoropiperidin-1-yl)-6-methylpyridin-2-yl)piperidine-2,6-dione] | 92.1 | 85.6
Cc1cc2cc(n1)-c1cnn(C)c1OC[C@H]1C[C@@H](CN3/C(=N/C2=O)Nc2ccc(N4CCN(C5CCN(c6ccc(C7CCC(=O)NC7=O)nc6C)CC5)CC4)cc23)C1 (stereo partly shown) [Example 21, 3-(5-(4-(4-((7^1s,7^3s,E)-1^1,2^6-dimethyl-3-oxo-5^2,5^3-dihydro-1H,5^1H-9-oxa-4-aza-5(2,1)-benzo[d]imidazola-2(2,4)-pyridina-1(4,5)-pyrazola-7(1,3)-cyclobutanacyclononaphane-5^6-yl)piperazin-1-yl)piperidin-1-yl)-6-methylpyridin-2-yl)piperidine-2,6-dione] | 94.0 | 91.5
Cc1cc2cc(n1)-c1cnn(C)c1OC[C@H]1C[C@@H](CN3/C(=N/C2=O)Nc2ccc(N(C)C4CN(C5CCN(c6cnc(C7CCC(=O)NC7=O)cc6C)CC5)C4)cc23)C1 (stereo partly shown) [Example 41, 3-(5-(4-(3-(((7^1s,7^3s,E)-1^1,2^6-dimethyl-3-oxo-5^2,5^3-dihydro-1^1H,5^1H-9-oxa-4-aza-5(2,1)-benzo[d]imidazola-2(2,4)-pyridina-1(4,5)-pyrazola-7(1,3)-cyclobutanacyclononaphane-5^6-yl)(methyl)amino)azetidin-1-yl)piperidin-1-yl)-4-methylpyridin-2-yl)piperidine-2,6-dione] | 84.2 | 80.1
Cc1cc2cc(n1)-c1cnn(C)c1OC[C@H]1C[C@@H](CN3/C(=N/C2=O)Nc2ccc(N4CCN(C5CCN(c6ccc(C7CCC(=O)NC7=O)nc6)CC5)C[C@H]4C)cc23)C1 (stereo partly drawn) [Example 7, 3-(5-(4-((R)-4-((7^1s,7^3S,E)-1^1,2^6-dimethyl-3-oxo-5^2,5^3-dihydro-1^1H,5^1H-9-oxa-4-aza-5(2,1)-benzo[d]imidazola-2(2,4)-pyridina-1(4,5)-pyrazola-7(1,3)-cyclobutanacyclononaphane-5^6-yl)-3-methylpiperazin-1-yl)piperidin-1-yl)pyridin-2-yl)piperidine-2,6-dione] | 78.6 | 80.6
Cc1cc2cc(n1)-c1cnn(C)c1OC[C@H]1C[C@@H](CN3/C(=N/C2=O)Nc2ccc(N4CC5CCC4CN5C4CCN(c5ccc(C6CCC(=O)NC6=O)nc5C)CC4)cc23)C1 (stereo partly shown) [Example 126, 3-(5-(4-(5-((7^1s,7^3s,E)-1^1,2^6-dimethyl-3-oxo-5^2,5^3-dihydro-1^1H,5^1H-9-oxa-4-aza-5(2,1)-benzo[d]imidazola-2(2,4)-pyridina-1(4,5)-pyrazola-7(1,3)-cyclobutanacyclononaphane-5^6-yl)-2,5-diazabicyclo[2.2.2]octan-2-yl)piperidin-1-yl)-6-methylpyridin-2-yl)piperidine-2,6-dione] | 85.9 | 80.5
Cc1cc2cc(n1)-c1cnn(C)c1OC[C@H]1C[C@@H](CN3/C(=N/C2=O)Nc2ccc(N4CCN(CC5CN(c6cc(F)c([C@H]7CCC(=O)NC7=O)c(F)c6)C5)CC4=O)cc23)C1 [Example 11, (R)-3-(4-(3-((4-((7^1s,7^3s,E)-1^1,2^6-dimethyl-3-oxo-5^2,5^3-dihydro-1^1H,5^1H-9-oxa-4-aza-5(2,1)-benzo[d]imidazola-2(2,4)-pyridina-1(4,5)-pyrazola-7(1,3)-cyclobutanacyclononaphane-5^6-yl)-3-oxopiperazin-1-yl)methyl)azetidin-1-yl)-2,6-difluorophenyl)piperidine-2,6-dione] | 85.4 | 91.5
Cc1cc2cc(n1)-c1cnn(C)c1OC[C@H]1C[C@@H](CN3/C(=N/C2=O)Nc2ccc(N4CCN(C5CCN(c6cnc([C@H]7CCC(=O)NC7=O)cc6C)CC5)C[C@@H]4C)cc23)C1 [Example 32, 3-(5-(4-((S)-4-((7^1s,7^3R,E)-1^1,2^6-dimethyl-3-oxo-5^1,5^3-dihydro-1^1H,5^1H-9-oxa-4-aza-5(2,1)-benzo[d]imidazola-2(2,4)-pyridina-1(4,5)-pyrazola-7(1,3)-cyclobutanacyclononaphane-5^6-yl)-3-methylpiperazin-1-yl)piperidin-1-yl)-4-methylpyridin-2-yl)piperidine-2,6-dione] | 88.8 | 88.8
COC[C@@H]1CN(c2ccc3c(c2)N2C[C@H]4C[C@@H](COc5c(cnn5C)-c5cc(cc(C)n5)C(=O)/N=C/2N3)C4)CCN1C1CCN(c2cnc(C3CCC(=O)NC3=O)cc2C)CC1 (stereo partly drawn) [Example 120, 3-(5-(4-((S)-4-((7^1s,7^3R,E)-1^1,2^6-dimethyl-3-oxo-5^2,5^3-dihydro-1^1H,5^1H-9-oxa-4-aza-5(2,1)-benzo[d]imidazola-2(2,4)-pyridina-1(4,5)-pyrazola-7(1,3)-cyclobutanacyclononaphane-5^6-yl)-2-(methoxymethyl)piperazin-1-yl)piperidin-1-yl)-4-methylpyridin-2-yl)piperidine-2,6-dione] | 83.1 | 82.4
Cc1cc2cc(n1)-c1cnn(C)c1OC[C@H]1C[C@@H](CN3/C(=N/C2=O)Nc2ccc(N(C)C4CC5(C4)CN(C4CCN(c6ccc(C7CCC(=O)NC7=O)nc6C)CC4)C5)cc23)C1 (stereo partly shown) [Example 112, 3-(5-(4-(6-(((7^1s,7^3s,E)-1^1,2^6-dimethyl-3-oxo-5^2,5^3-dihydro-1^1′H,5^1H-9-oxa-4-aza-5(2,1)-benzo[d]imidazola-2(2,4)-pyridina-1(4,5)-pyrazola-7(1,3)-cyclobutanacyclononaphane-5^6-yl)(methyl)amino)-2-azaspiro[3.3]heptan-2-yl)piperidin-1-yl)-6-methylpyridin-2-yl)piperidine-2,6-dione] | 85.2 | 75.2
Cc1cc2cc(n1)-c1cnn(C)c1OC[C@H]1C[C@@H](CN3/C(=N/C2=O)Nc2ccc(N4CCN([C@H]5CCN(c6ccc(C7CCC(=O)NC7=O)nc6C)CC5(F)F)CC4)cc23)C1 (stereo partly drawn) [Example 125, 3-(5-((S)-4-(4-((7^1s,7^3R,E)-1^1,2^6-dimethyl-3-oxo-5^2,5^3-dihydro-1^1H,5^1H-9-oxa-4-aza-5(2,1)-benzo[d]imidazola-2(2,4)-pyridina-1(4,5)-pyrazola-7(1,3)-cyclobutanacyclononaphane-5^6-yl)piperazin-1-yl)-3,3-difluoropiperidin-1-yl)-6-methylpyridin-2-yl)piperidine-2,6-dione] | 86.8 | 89.9
